Data from patent US20260218210A1, “ENGINEERED BACTERIA FOR CELLULAR BARRIER M[…] PROTECTION” (The Trustees of Columbia University in the City of New York, priority 2023, published 2026).

How the values were obtained:
[1] = test system: acute DSS colitis in NFD/FDD fed mice; test: Acute DSS colitis in mice fed fiber-deficient (no fiber) diet; assay type: in vivo, mouse
Protocol: (§1) Mice and diets C57BL/6J and Il10^−/− mice were purchased from Jackson Laboratory. Animals were purchased from maximum barrier rooms and maintained in high barrier animal rooms at Columbia University. All mice were maintained under specific-pathogen-free (SPF) conditions for the duration of the experiments. All experiments were performed under IACUC approved guidelines. To control for microbiota and cage effects, mice were shuffled between cages before the start of each experiment and randomly assigned to each group. All experiments were performed with gender and age (8-12 weeks at start of experiment) matched mice. Animals were maintained on normal diet (PicoLab Rodent Diet 20, 5053) until start of experiments and then switched to fiber-deficient diet (Teklad Custom Diet, TD.00278) or continued on ND as indicated. ND contained 21% protein, 53.4% carbohydrates, 5% fat, 5% fiber and 4 kcal/g. FDD contained 19.3% protein, 64.8% carbohydrates, 5.1% fat and no fiber, overall the diet provides 3.9 kcal/g.
(§2) DSS colitis and GLP-1 modulating therapies For induction of acute DSS colitis, between 0.5% to 6% w/v dextran sulfate sodium (DSS, colitis grade, MPbio) was supplemented in drinking water for five days. Drinking water was furthermore enriched with 2% w/v sucrose for all groups. Mice were switched to FDD seven days prior to DSS supplementation or maintained on ND during course of experiment. As indicated, FDD mice were i.p. injected with 0.1 μg/g GLP-1 receptor agonist (Exendin-4, AS-24463, AnaSpec) or 0.4 μg/g GLP-1 receptor antagonist (Exendin-9-39, AS-24467, AnaSpec) in 100 μl PBS every day starting one day before start of DSS. Additionally, mice were orally gavaged with either 10^10 CFU E. coli Nissle (EcN) or 10^10 CFU E. coli Nissle-HldSE (EcN-HldSE) every day starting one day prior to DSS supplementation. Of note, tissue samples for RNA-sequencing analysis are derived from mice either gavaged with EcN (control and GLP-1 receptor agonist groups) or EcN-HldSE (EcN-HldSE and GLP-1 receptor antagonist groups). Mice were monitored daily for changes in body weight. After five days, mice were euthanized for blood and tissue sampling.
Histological analyses The colonic tissue was carefully rinsed with PBS to remove fecal matter. Colon and small intestine was fixated in 10% formalin for >24 hours and embedded in paraffin. 5 μm section were stained with H&E, Alcian Blue and Immunohistochemistry (IHC) staining for GLP-1 (GLP-1 polyclonal antibody, PA5-79303, Invitrogen). A pathologist assessed and scored H&E stained slides for colitis grading.
Plating for liver colony forming units (CFU) For bacterial extraction from liver tissue, livers were first weighed and then transferred into sterile stainless steel microvials (Biospec #2007) containing two stainless steel beads (6.35 mm, Biospec #11079635SS) and capped with silicone rubber caps (Biospec #2008). The vials were subsequently filled with 500 μL of sterile phosphate-buffered saline (PBS), and the tubes were placed on ice to prevent bacterial growth. The samples were homogenized using a Mini-BeadBeater-16 (BioSpec) with three cycles of 30 seconds at 4° C. After extraction, the samples were diluted as needed in PBS, and 100 μL of the diluted solution was plated onto Luria-Bertani (LB) agar plates (2% agar). The plates were thoroughly dried and incubated at 37° C. overnight. Colony-forming units (CFU) were counted the following day and normalized to tissue weight.
Plasma analyses GLP-1 and pro-inflammatory cytokine measurements were performed from plasma samples. After euthanasians, blood was drawn from mice with needles coated with EDTA to stop coagulation. Blood samples were pelleted by centrifugation for 10 min at 15000 rpm at 4° C. Supernatant was transferred to a new tube, snap frozen and stored at −80° C. GLP-1 ELISA (GLP-1 Multispecies ELISA kit, BMS2194, Invitrogen) and LEGENDplex Mouse Inflammation Panel (740446, BioLegend) were performed according to manufacturer protocol. […]

[2] = test system: acute DSS colitis in NC/ND fed mice; test: Acute DSS colitis in mice fed normal chow / normal diet; assay type: in vivo, mouse; conditions: five days DSS colitis
Protocol: as §1, §2
Plating for liver colony forming units (CFU) For bacterial extraction from liver tissue, livers were first weighed and then transferred into sterile stainless steel microvials (Biospec #2007) containing two stainless steel beads (6.35 mm, Biospec #11079635SS) and capped with silicone rubber caps (Biospec #2008). […] Colony-forming units (CFU) were counted the following day and normalized to tissue weight.
Here, mice with low fiber diets were treated with DSS for […] with or without the engineered Nissle HldSE (FIG. 3A) Treatment with Nissle HldSE improved barrier function measured based on infiltrating gut bacteria in liver (Liver CFU; FIG. 3C). […]

[3] = test system: colon tissue gene expression; test: RNA-sequencing of colon tissue of FDD mice during DSS colitis; assay type: in vivo, mouse
Protocol: as §2
RNA colonic transcriptomics For mRNA sequencing using the Illumina platform, total RNA was first extracted from tissue using TRItol reagent. The extracted RNA was quantified using Bioanalyzer to ensure high-quality RNA (RIN>7) for further library preparation. Poly-A mRNA was isolated using the Dynabeads™ mRNA Purification Kit (Thermo Fisher, #61006), followed by fragmentation with the NEBNext Ultra II RNA Library Prep Kit (New England Biolabs, #E7770) at 94° C. for 8 minutes. First-strand cDNA synthesis was performed using SuperScript IV Reverse Transcriptase (Thermo Fisher, #18090050), followed by second-strand cDNA synthesis. […] Libraries were validated for quality and size distribution using 2% agarose gel and enriched using size selection beads to eliminate any cDNA below 350 bp, and quantified using a Qubit 4 Fluorometer (Thermo Fisher, #Q33226). Sequencing was performed on an Illumina NextSeq550 platform using paired-end 150 bp reads high output.
Post-sequencing, FastQC (v0.11.9) was employed to assess raw read quality, evaluating metrics such as per-base sequence quality (Q30 or higher), GC content, and potential adapter contamination. […] Reads alignment and transcripts quantification of gene expression were done using Kallisto (v0.46.1) and DESeq2 (v1.30.1) was then used for differential expression analysis, incorporating normalization and variance-stabilizing transformation to account for differences in sequencing depth and library size. […]

[4] = test system: acute DSS colitis in NFD/FDD fed mice; test: Acute DSS colitis in mice fed fiber-deficient (no fiber) diet; assay type: in vivo, mouse; conditions: five days DSS colitis
IEL γδ (gd) T cells = test: IEL γδ T cell IL-17A production and γδ T cell depletion in DSS colitis of NFD fed mice; assay type: in vivo, mouse
Text: EcN or EcN HldSE (5×10^9 CFU/mouse) was gavaged daily starting three days prior to DSS administration. gd T cells were depleted by administration of neutralizing antibodies i.p. every other day. […] EcN or EcN HldSE (5×10^9 CFU/mouse) was gavaged daily starting three days prior to DSS administration. gd T cells were depleted by administration of neutralizing antibodies i.p. every other day. N=3-5 mice/group, one experiment. […] EcN or EcN HldSE (5×10^9 CFU/mouse) was gavaged daily starting three days prior to DSS administration. gd T cells were depleted by administration of neutralizing antibodies i.p. every other day. N=3-5 mice/group, one experiment.

GLP-1 release = conditions: cited from earlier work
[5] = FDD mice, DSS colitis, EcN-HldSE treatment plus antagonist injection
[6] = FDD mice, five days DSS colitis, agonist 0.1 μg/g i.p. daily or 10^10 CFU gavage daily

In the case of “Exendin-9-39 [GLP-1 receptor antagonist]”, the “protective effects of the engineered probiotic” value ([1]; FDD mice, DSS colitis, EcN-HldSE treatment plus antagonist 0.4 μg/g i.p. daily) is reported as “abolished”, the colon length [1, 5] is reported as “shorter” and the “level of circulating pro-inflammatory cytokines” value [1, 5] is reported as “elevated”. The “number of bacteria in the liver” value [1, 5] was “drastically increased”, the weight loss [1, 5] was “severe” and the “bacterial dissemination into the liver” value [2] was “higher”. For the same substance, the colon shortening [2] was “greater”, the disease severity [2] was “exacerbated” and the weight loss [2] was “more”.

For Exendin-4 [GLP-1 receptor agonist], the “L-cell numbers (GLP-1 staining) in colon” value ([1]; FDD mice during DSS colitis) was “increase”, the “goblet cell numbers (Alcian Blue staining) in colon” value ([1]; FDD mice during DSS colitis) was “remained unchanged” and the histological colitis score ([1]; FDD mice, DSS colitis) was “improved”. For the same substance, the “colitis outcome in dysbiotic mice” value ([1]; FDD mice, DSS colitis, figure headlines FIGS. 10, 11) was “ameliorate”, the “circulating (pro-)inflammatory cytokines (TNF-α, IL-1α, IL-6, MCP-1)” value ([1]; FDD mice, five days DSS colitis, plasma) was “lower” and the colon shortening [1, 6] was “less”. The weight loss [1, 6] was “reduced”, the “genes linked to ribosome biogenesis, cell cycle and DNA replication and inflammatory signaling” value ([3]; colon of FDD mice during colitis) was “downregulated” and the “DEGs commonly upregulated in the colon with EcN-HldSE and the GLP-1 receptor agonist” value ([3]; colon of FDD mice, DSS colitis, versus EcN control) was about 50%. For the same substance, the “genes associated with homeostasis and recovery phases (GSEA)” value ([3]; colon of FDD mice, acute colitis, DSS colitis time-series dataset) was “enrichment”, the “genes involved in lipid metabolism, tight junctions and epithelial structure maintenance” value ([3]; over-representation analysis, colon of FDD mice during DSS colitis) was “upregulation” and the “CFU levels in the liver (bacteria dissemination into the liver)” value [4] was “significantly reduced”.

In the case of MAADIISTIGDLVKWIIDTVNKFKK [HldSE], the “IL-17A production by γδ T cells” value (IEL γδ (gd) T cells; IEL γδ T cells after 6 days of DSS treatment of NFD fed mice) is given as “upregulation”, the “efficacy of the peptide after depletion of γδ T cells” value (IEL γδ (gd) T cells; experimental depletion of γδ T cells, NFD fed mice, DSS) is given as “notable, albeit not exhaustive, diminishment” and the “GLP-1 release in vitro” value (GLP-1 release) is given as “induce”.
